Assay results published in patent US20020077356A1, “Nonsteroidal antiinflammatory agents” (priority 2000, published 2002).
Read-outs that look alike come from different tables or passages of the source.

Assays:
[1] = biological target: T1, glucocorticoid receptor (GR) (Homo sapiens, UniProt P04150); test: glucocorticoid receptor (GR) binding test; conditions: cytosol preparations of Sf9 cells infected with recombinant baculoviruses coding for the GR; 10 nM [3H]-dexamethasone
T1 construct: made in house; host or cells: Sf9 insect cells infected with recombinant baculovirus; cytosol preparation
T1 sequence (P04150 1-777): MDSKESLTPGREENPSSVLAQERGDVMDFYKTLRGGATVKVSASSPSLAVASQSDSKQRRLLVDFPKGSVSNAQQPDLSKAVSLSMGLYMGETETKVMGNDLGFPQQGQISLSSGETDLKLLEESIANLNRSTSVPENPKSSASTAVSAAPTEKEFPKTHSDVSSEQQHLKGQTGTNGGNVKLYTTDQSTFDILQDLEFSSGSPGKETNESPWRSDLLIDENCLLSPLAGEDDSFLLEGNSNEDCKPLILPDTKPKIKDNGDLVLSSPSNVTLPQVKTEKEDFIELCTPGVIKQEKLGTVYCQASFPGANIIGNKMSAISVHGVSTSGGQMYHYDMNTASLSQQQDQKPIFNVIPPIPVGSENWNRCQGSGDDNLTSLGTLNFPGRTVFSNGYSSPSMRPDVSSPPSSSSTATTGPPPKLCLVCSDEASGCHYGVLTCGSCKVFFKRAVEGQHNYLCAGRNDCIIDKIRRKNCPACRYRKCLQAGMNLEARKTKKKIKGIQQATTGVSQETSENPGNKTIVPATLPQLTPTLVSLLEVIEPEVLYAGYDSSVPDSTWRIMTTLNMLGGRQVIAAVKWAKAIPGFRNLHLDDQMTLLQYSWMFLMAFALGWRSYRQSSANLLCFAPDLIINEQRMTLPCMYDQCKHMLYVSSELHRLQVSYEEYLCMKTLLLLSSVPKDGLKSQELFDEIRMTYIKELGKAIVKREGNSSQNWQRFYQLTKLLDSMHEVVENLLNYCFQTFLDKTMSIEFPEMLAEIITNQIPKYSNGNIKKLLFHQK
Excerpt: The binding of substances to the glucocorticoid receptor (GR) is examined with the aid of a recombinantly produced receptor. Cytosol preparations of Sf9 cells, which had been infected with recombinant baculoviruses, which code for the GR, are used for the binding studies.

[2] = system: secretion of cytokine IL-8 in the human monocyte cell line THP-1; test: inhibition of LPS-triggered IL-8 secretion in THP-1 cells; type: cell-based; set-up: Inhibition of IL-8 Secretion Effectiveness: concentration or dose not given beside the values; conditions: ELISA of supernatant
Experimental: The concentration of the cytokines was determined in the supernatant with use of commercially available ELISA kits.
The potency of the antiinflammatory action is determined in a cell test by the inhibition of the secretion of cytokine IL-8. […] The concentration of the cytokines was determined in the supernatant by means of commercially available ELISA kits. In this connection, the compounds of formula 1 show a high to very high potency and action in inhibition (see Table 10).

[3] = system: croton oil-induced inflammation in rats and mice; test: croton oil-induced inflammation (ear edema); type: in vivo; conditions: systemically two hours before croton oil, ear weight after 16-24 hours
Experimental: The antiinflammatory actions of the compounds of general formula I were tested in the animal experiment by testing in the croton oil-induced inflammation in rats and mice (J. Exp. Med. (1995), 182, 99-108). In this connection, croton oil in ethanolic solution was administered topically to the animals' ears. The test substances were also administered topically or systemically simultaneously with or two hours before the croton oil. After 16-24 hours, the ear weight was measured as a yardstick of the inflammatory edema, the peroxidase activity was measured as a yardstick of the invasions of granuloctyes, and the elastase activity was measured as a yardstick of the invasions of neutrophilic granuloctyes. In this test, the compounds of general formula I inhibit the three above-mentioned inflammation parameters both after topical administration and after systemic administration.
The antiinflammatory actions of the compounds of general formula I were tested in the animal experiment in the croton oil-induced inflammation in rats and mice (J. Exp. Med. (1995), 182, 99-108). In this respect, croton oil in an ethanolic solution was administered topically to the ears in the animals. The test substances were systemically administered two hours before the croton oil. After 16-24 hours, the ear weight was measured as a yardstick of the inflammatory edema.

[4] = system: tyrosinamino transferase (TAT); conditions: in vivo
Experimental: (§1) The activity of this enzyme can be determined photometrically from liver homogenates and represents a good yardstick of the undesirable metabolic actions of the glucocorticoids. To measure the TAT induction, the animals are sacrificed 8 hours after the test substances are administered, the livers are removed, and the TAT activity in the homogenate is measured.
(§2) As a parameter for the side effects of the steroid-induced catabolic metabolism, the activity of the enzyme tyrosinamino transferase (TAT) was determined from liver homogenates by photometry. The activity represents a good yardstick of the undesirable metabolic actions of the glucocorticoids. To measure the TAT induction, the animals are sacrificed 8 hours after the test substances are administered, the livers are removed, and the TAT activity in the homogenate is measured.

[5] = system: tyrosinamino transferase (TAT); test: induction of tyrosinamino transferase (TAT) activity in liver homogenates; conditions: liver homogenate 8 hours after administration, n-fold increase compared to untreated animals
Experimental: as §1, §2

Row | IC50 [1] [nM] | IC50 [2] [nM] | Induction factor for TAT with 3 mg/kg [4] | Induction factor for TAT with 30 mg/kg [4] | IC50 ([2]; Homo sapiens) [nM] | Induction factor for TAT with 3 mg/kg ([5]; 3 mg/kg) | Induction factor for TAT with 30 mg/kg ([5]; 30 mg/kg) | Compound | Inhibition of IL-8 Secretion Effectiveness [2] [%] | Edema inhibition with 3 mg/kg [3] [%] | Edema inhibition with 30 mg/kg [3] [%]
1 | < 0.3 | 9.6 |  |  |  |  |  | Cc1noc(=O)c2ccc(NC(=O)C(O)(CC3(c4cc(F)ccc4Cl)CC3)C(F)(F)F)cc12 (single isomer, unassigned; (+)) [Example 16, compound 13, (+)-6-[3-{1-(2-chloro-5-fluorophenyl)-cyclopropyl}-2-hydroxy-2-trifluoromethyl-propionyl]-amino-4-methyl-2,3-benzoxazin-1-one] | 58 | 47 | 106
2 | 1.1 | 30 |  |  |  |  |  | Cc1noc(=O)c2ccc(NC(=O)C(O)(CC3(c4cc(F)ccc4C(F)(F)F)CCC3)C(F)(F)F)cc12 (single isomer, unassigned; (+)) [Example 16, compound 33, (+)-6-[3-{1-(5-fluoro-2-trifluoromethyl-phenyl)-cyclobutyl}-2-hydroxy-2-trifluoromethylpropionyl]-amino-4-methyl-2,3-benzoxazin-1-one] | 45 | 77 | 86
3 | < 0.3 | 65 |  |  |  |  |  | Cc1noc(=O)c2ccc(NC(=O)C(O)(CC(C)(C)c3ccc(F)cc3Cl)C(F)(F)F)cc12 (single isomer, unassigned; (+)) [Example 3, compound 9, (+)-6-[4-(2-chloro-4-fluoro-phenyl)-2-hydroxy-4-methyl-2-trifluoromethylvaleroyl]-amino-4-methyl-2,3-benzoxazin-1-one] | 51 | 50 | 92
4 | 16 | 4.3 | 1.4 | 3.7 |  |  |  | Cc1noc(=O)c2ccc(NC(=O)C(O)(CC3(c4ccccc4C(F)(F)F)CCC3)C(F)(F)F)cc12 (single isomer, unassigned; (+)) [Example 16, compound 26, (+)-6-[3-{1-(2-trifluoromethyl-phenyl)-cyclobutyl}-2-hydroxy-2-trifluoromethylpropionyl]-amino-4-methyl-2,3-benzoxazin-1-one] | 77 | 11 | 81
5 | 0.62 | 10 | 1.3 | 2.0 |  |  |  | Cc1noc(=O)c2ccc(NC(=O)C(O)(CC3(c4cc(F)ccc4Cl)CCC3)C(F)(F)F)cc12 (single isomer, unassigned; (+)) [Example 16, compound 16, (+)-6-[3-{1-(2-chloro-5-fluorophenyl)-cyclobutyl}-2-hydroxy-2-trifluoromethyl-propionyl]-amino-4-methyl-2,3-benzoxazin-1-one] | 80 | 54 | 78
6 |  |  |  |  | 24 | 2.6 | 8.0 | C[C@]12C=CC(=O)C=C1CC[C@@H]1[C@@H]2[C@@H](O)C[C@@]2(C)[C@H]1CC[C@]2(O)C(=O)CO [Prednisolone, reference compound] | 95 | 35 | 84
